We go through one molecule from patent US11179471B2, “Peptide for cytosolic delivery” (priority 2017, dated 2021).

Molecules are shown by their SMILES. Entries after “also recorded” stand apart in the source; their conditions may differ. Residues, ends and D or L forms follow the SMILES beside them.

The nature of data set [1]: Helix content from CD spectra in the presence of POPC/POPG (3:1) liposomes. Format: physicochemical. Particulars: result in words (FIG. 1). The method, then: The helix content was calculated by the method of Y. H. Chen et al., 1972, based on 222-nm molar ellipticity ([…]) using the following formula: Helicity (%)=−([θ]222+2340)/30300*100.
The helix content of the peptides obtained in Example 1 (L17E, L17E/Q21E, L17Aad, HA/E1, HA/E2, and HAad) was calculated in the presence of POPC/POPG (3:1) liposomes by the method of Y. H. Chen et al., 1972, based on 222-nm molar ellipticity ([θ]222) using the following formula: Helix content (%)=−([θ]222+2340)/30300*100. Further, the CD spectra of the peptides were measured.

For data set [2], the system named is HeLa cells. Briefly: Release of Alexa 488-dextran (10 kDa) into the cytoplasm, confocal microscopy. The class given is cell-based. The procedure:
Cells; HeLa, peptides; 40 μM, Alexa 488-dextran (10 kDa); 200 μg/mL, treatment; 1 hr in α-MEM(−).
Cells; HeLa, peptides; 40 μM, Alexa 488-dextran (10 kDa); 200 μg/mL, treatment; 1 hr in α-MEM(−). The results are presented as means ±SE (n=3). **; p<0.01 (Student's t-test).
Cells; HeLa, peptides; 40 μM, Alexa 488-dextran (10 kDa); 200 μg/mL, treatment; 1 hr in α-MEM(−). Results are presented as means±SE (n=3). *; p<0.05, **; p<0.01, ***; p<0.001 (one-way ANOVA followed by the Tukey-Kramer honestly significant difference test (post-hoc test)).
In the presence of each peptide obtained in Example 1 (L17E, L17E/Q21E, HA/E1, HA/E2) (40 μM) or in the absence of the peptides (a control, no peptide), HeLa cells and Alexa 488-dextran (Molecular Probes, 10 kDa) (200 μg/mL) were treated in α-MEM(−) for 1 hour. The cells were washed, and observed with a confocal microscope.
In the presence of each peptide obtained in Example 1 (L17E, L17Aad) (40 μM) or in the absence of the peptides (a control, no peptide), HeLa cells and Alexa 488-dextran (Molecular Probes, 10 kDa) (200 μg/mL) were treated in α-MEM(−) for 1 hour. The cells were washed, and observed with a confocal microscope.
In the presence of each peptide obtained in Example 1 (HAad, HA/E2, L17Aad, L17E) (40 μM) or in the absence of the peptides (a control, no peptide), HeLa cells and Alexa 488-dextran (Molecular Probes, 10 kDa) (200 μg/mL) were treated in α-MEM(−) for 1 hour. The cells were washed, and observed with a confocal microscope.
When HeLa cells were incubated with Alexa 488-dextran (10 kDa) (200 μg/mL) as a macromolecular drug model in the presence of HAad (40 μM) in α-MEM(−) for 1 hour, Alexa 488-dextran release into about 75% of cells (cytosol) was observed. In contrast, when the incubation was performed in the presence of L17E, Alexa 488-dextran release into about 50% of the cells was observed.
HeLa cells, Alexa 488-dextran (Molecular Probes, 10 kDa) (200 μg/mL), and HAad; or HeLa cells, Alexa 488-dextran, (Molecular Probes, 10 kDa) (200 μg/mL), and HAad-homoR (20 μM) were treated in α-MEM(−) for 1 hour. The cells were washed, and observed with a confocal microscope.

Another data set concerns NIH3T3 cells. Briefly: Intracellular release of dextran (10 kDa) in NIH3T3 cells. Format: cell-based. The procedure:
Intracellular release of dextran is more difficult in NIH3T3 cells than in HeLa cells. NIH3T3 cells and dextran (10 kDa) were incubated in the presence of HAad, HA/E2, or L17E (40 μM each) in DEME(−) medium for 1 hour in the same manner as in Example 6.

Data set [3] has as its system HeLa cells transfected with a plasmid encoding loxP-DsRed-loxP-EGFP. Briefly: Genetic recombination assay by intracellular delivery of Cre protein (EGFP expression). The class given is cell-based. The procedure:
HeLa cells transfected with a plasmid encoding loxP-DsRed-loxP-EGFP, which were prepared in the same manner as in the Examples of PTL 2, were incubated with His-tag fusion Cre (Cre-Hiss) (10 μM) in the presence of HAad, HA/E2, or L17E (40 μM each) for 1 hour. This system was designed to express EGFP when intracellular release of Cre protein induces genetic recombination. […] The proportions of GFP-expressing cells in the cells treated with HAad, HA/E2, and L17E were 41%, 36%, and 30%, respectively. Considering the fact that the EGFP expression efficiency achieved with no administration of a release peptide was 9%, peptide administration of HAad, HA/E2, and L17E can be considered to increase genetic recombination by 32%, 27%, and […], respectively, as compared with no peptide administration.

Data set [4] has as its system mitochondrial membrane of HeLa cells. Particulars: HeLa; 40 μM, 1 hour in α-MEM(−); Lipofectamine LTX/pCI complex overnight in α-MEM(+). From the text: Mitochondrial membranes are considered to be rich in acidic lipid, as compared with cell membranes. Accordingly, the effects of the above peptides on a mitochondrial membrane were examined by JC-1 assay. A JC-1 reagent emits red (J-aggregate) fluorescence when the mitochondrial membrane is kept normal and the membrane potential is maintained; and the JC-1 reagent emits green (J-monomer) fluorescence when the mitochondrial membrane is damaged and the membrane potential is not kept normal. After HeLa cells were incubated with HAad, HA/E2, or L17E (40 μM) in α-MEM(−) for 1 hour, JC-1 assay was performed. The percentage of cells that emitted red fluorescence was assayed by flow cytometry.

For data set [5], the system named is HeLa cells. Description: Nuclear accumulation of NLS-EGFP. Format: cell-based. Particulars: NLS-EGFP 10 μM; peptide 40 μM; α-MEM(−) 1 hour. The procedure: The cells and NLS-EGFP (10 μM) were incubated in the presence of HAad or L17E (40 μM each) in α-MEM(−) medium for 1 hour in the same manner as in Example 6. If NLS-EGFP is intracellularly released while maintaining its activity, localization of green fluorescence in the nuclei is observed. […] A high activity of HAad to release endosome-encapsulated substances was also confirmed in this system.

`CC[C@H](C)[C@H](N)C(=O)N[C@@H](Cc1c[nH]c2ccccc12)C(=O)N[C@@H](CC(C)C)C(=O)N[C@H](C(=O)N[C@@H](C)C(=O)N[C@@H](CC(C)C)C(=O)N[C@@H](CCCCN)C(=O)N[C@@H](Cc1ccccc1)C(=O)N[C@@H](CC(C)C)C(=O)NCC(=O)N[C@@H](CCCCN)C(=O)N[C@@H](C)C(=O)N[C@@H](C)C(=O)N[C@@H](C)C(=O)N[C@@H](CCCCN)C(=O)N[C@@H](C)C(=O)N[C@@H](CCCC(=O)O)C(=O)N[C@@H](C)C(=O)N[C@@H](CCCCN)C(=O)N[C@@H](CCC(N)=O)C(=O)N[C@@H](CCCC(=O)O)C(=O)N[C@@H](CC(C)C)C(=O)N[C@@H](CO)C(=O)N[C@@H](CCCCN)C(=O)N[C@@H](CC(C)C)C(N)=O)[C@@H](C)O` [HAad, H-IWLTALKFLGKAAAKAXAKQXLSKL-amide] (HELM PEPTIDE1{I.W.L.T.A.L.K.F.L.G.K.A.A.A.K.A.[O=C(O)CCC[C@H](N[*:1])C(=O)[*:2]].A.K.Q.[O=C(O)CCC[C@H](N[*:1])C(=O)[*:2]].L.S.K.L.[am]}$$$$V2.0): the “helicity in the presence of an acidic lipid membrane” value in data set [1] is “high helicity”. The “cells in which release of Alexa 488-dextran into the cytoplasm was observed” value in the data set on HeLa cells [2] (peptide 20 μM, Alexa 488-dextran (10 kDa) 200 μg/mL, 1 hour in α-MEM(−)) was “about 40%”. In addition, the “endosome-encapsulated substance (Alexa 488-dextran) releasing activity, in words” value with HeLa cells [2] (peptide 40 μM, Alexa 488-dextran 200 μg/mL, 1 hr, compared with L17E) was “higher endosomal content release activity than L17E; also recorded: Significant outflow; also recorded: much more effectively”. Moreover, the “cells in which Alexa 488-dextran release into the cytosol was observed” value in the data set on HeLa cells [2] (peptide 40 μM, Alexa 488-dextran (10 kDa) 200 μg/mL, 1 hour in α-MEM(−)) is reported as “about 75%”. The “intracellular release of dextran relative to L17E” value in the data set with NIH3T3 cells (40 μM) is reported as “twice”. Further, the “cells in which intracellular release of dextran was observed” value with NIH3T3 cells (peptide 40 μM, dextran (10 kDa), DEME(−) medium 1 hour) was “about 35%”. For the same molecule, the “proportion of GFP-expressing cells” value in data set [3] (Cre-His6 10 μM, peptide 40 μM, 1 hour, then 24 hours in α-MEM(+)) was 41%. In data set [3] (EGFP expression with no release peptide was 9%), the “increase of genetic recombination as compared with no peptide administration” value is recorded as 32%. In addition, the “effect on mitochondrial membrane (cells emitting red JC-1 fluorescence), in words” value in data set [4] was “no significant difference from the untreated case”. Moreover, in the data set with HeLa cells [5], the “cells in which localization of NLS-EGFP in the nuclei was observed” value is “about 84%”.
